From ChEMBL document CHEMBL1909046, “DrugMatrix in vitro pharmacology data”

Assays:
[1] = biological target: T1, Receptor-type tyrosine-protein phosphatase C (Homo sapiens, UniProt P08575); parameters: species or system Escherichia coli;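 note: inhibition of CD45 enzyme activity measured using DiFMUP as substrate; in other assays of this panel Not Active means under 50% inhibition at 10 µM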
T1 sequence (P08575 whole entry): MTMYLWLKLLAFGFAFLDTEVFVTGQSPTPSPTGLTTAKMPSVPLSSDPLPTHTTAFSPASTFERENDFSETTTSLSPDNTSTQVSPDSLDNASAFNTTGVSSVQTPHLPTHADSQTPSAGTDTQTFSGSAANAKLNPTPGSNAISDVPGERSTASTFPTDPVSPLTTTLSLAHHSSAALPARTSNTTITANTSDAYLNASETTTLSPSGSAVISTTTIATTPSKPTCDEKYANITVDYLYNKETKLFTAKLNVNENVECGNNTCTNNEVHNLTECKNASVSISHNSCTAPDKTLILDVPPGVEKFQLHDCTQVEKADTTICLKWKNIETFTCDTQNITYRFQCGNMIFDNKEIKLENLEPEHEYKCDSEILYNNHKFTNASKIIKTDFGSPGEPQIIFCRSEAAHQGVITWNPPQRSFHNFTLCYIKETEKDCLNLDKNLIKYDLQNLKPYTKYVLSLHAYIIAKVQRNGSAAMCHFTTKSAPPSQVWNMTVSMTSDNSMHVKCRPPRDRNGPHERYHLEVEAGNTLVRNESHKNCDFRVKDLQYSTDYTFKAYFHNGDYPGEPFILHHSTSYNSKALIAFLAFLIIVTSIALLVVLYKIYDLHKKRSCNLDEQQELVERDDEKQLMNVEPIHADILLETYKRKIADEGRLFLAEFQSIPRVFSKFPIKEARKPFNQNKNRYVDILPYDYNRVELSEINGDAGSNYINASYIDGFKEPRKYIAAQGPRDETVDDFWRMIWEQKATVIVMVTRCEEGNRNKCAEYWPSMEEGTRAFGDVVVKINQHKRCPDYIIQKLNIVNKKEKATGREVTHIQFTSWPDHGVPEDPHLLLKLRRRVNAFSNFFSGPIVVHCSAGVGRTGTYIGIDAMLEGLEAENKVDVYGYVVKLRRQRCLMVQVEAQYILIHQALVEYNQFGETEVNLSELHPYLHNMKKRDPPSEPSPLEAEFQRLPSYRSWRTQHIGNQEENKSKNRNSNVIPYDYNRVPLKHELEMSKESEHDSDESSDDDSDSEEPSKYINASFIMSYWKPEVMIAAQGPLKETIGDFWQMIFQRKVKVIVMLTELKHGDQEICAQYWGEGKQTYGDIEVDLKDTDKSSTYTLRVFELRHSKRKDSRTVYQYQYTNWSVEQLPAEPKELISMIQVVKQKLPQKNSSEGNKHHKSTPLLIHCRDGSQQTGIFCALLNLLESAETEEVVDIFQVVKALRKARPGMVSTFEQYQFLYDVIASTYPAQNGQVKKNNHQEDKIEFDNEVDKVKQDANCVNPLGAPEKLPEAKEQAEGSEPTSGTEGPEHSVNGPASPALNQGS

[2] = biological target: T2, Amine oxidase [flavin-containing] A (Homo sapiens, UniProt P21397); assay: DRUGMATRIX: Monoamine Oxidase MAO-A enzyme inhibition (substrate: Kynuramine); parameters: species or system BTI-TN-5B1-4; settings: bti-tn-5b1-4; Not Active = under 50% inhibition at 10 µM
T2 sequence (P21397 whole entry): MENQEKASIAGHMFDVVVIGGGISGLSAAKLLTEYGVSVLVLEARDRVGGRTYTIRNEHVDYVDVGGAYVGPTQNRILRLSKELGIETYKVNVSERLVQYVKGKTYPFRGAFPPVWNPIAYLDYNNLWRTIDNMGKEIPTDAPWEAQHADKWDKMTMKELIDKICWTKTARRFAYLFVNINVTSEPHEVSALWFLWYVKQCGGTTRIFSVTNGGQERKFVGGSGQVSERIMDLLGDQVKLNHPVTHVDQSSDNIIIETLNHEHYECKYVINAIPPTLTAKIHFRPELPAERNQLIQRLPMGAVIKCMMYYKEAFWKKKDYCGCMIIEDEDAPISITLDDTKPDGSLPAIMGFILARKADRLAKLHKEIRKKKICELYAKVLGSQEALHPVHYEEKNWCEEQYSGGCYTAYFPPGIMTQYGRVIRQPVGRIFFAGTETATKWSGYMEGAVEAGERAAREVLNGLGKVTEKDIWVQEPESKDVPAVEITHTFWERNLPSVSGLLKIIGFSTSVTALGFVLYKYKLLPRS

[3] = DRUGMATRIX: Phosphodiesterase PDE4 enzyme inhibition (substrate: [3H]cAMP + cAMP); settings: u-937; Not Active = under 50% inhibition at 10 µM
[4] = biological target: T3, 5-hydroxytryptamine receptor 1A (Rattus norvegicus, UniProt P19327); type: cell membranes, CHO-K1, Membrane; note: in other assays of this panel Not Active means under 50% inhibition at 10 µM
T3 sequence (P19327 whole entry): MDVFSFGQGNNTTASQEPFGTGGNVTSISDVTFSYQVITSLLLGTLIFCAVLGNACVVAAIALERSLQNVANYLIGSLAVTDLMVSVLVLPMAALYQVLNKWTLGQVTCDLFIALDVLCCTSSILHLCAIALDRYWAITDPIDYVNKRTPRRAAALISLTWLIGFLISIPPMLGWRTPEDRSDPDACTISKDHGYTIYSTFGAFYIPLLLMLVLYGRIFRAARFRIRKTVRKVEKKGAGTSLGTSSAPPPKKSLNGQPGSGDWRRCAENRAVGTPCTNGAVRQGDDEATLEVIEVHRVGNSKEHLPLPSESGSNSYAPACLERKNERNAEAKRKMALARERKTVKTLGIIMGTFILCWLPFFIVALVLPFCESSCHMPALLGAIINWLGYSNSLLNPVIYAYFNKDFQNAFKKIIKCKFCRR

[5] = biological target: 5-hydroxytryptamine receptor 1B (Rattus norvegicus, UniProt P28564); type: cell membranes, Wistar, Cerebral cortex, Membrane; note: in other assays of this panel Not Active means under 50% inhibition at 10 µM
Chain of 5-hydroxytryptamine receptor 1B (P28564 whole entry): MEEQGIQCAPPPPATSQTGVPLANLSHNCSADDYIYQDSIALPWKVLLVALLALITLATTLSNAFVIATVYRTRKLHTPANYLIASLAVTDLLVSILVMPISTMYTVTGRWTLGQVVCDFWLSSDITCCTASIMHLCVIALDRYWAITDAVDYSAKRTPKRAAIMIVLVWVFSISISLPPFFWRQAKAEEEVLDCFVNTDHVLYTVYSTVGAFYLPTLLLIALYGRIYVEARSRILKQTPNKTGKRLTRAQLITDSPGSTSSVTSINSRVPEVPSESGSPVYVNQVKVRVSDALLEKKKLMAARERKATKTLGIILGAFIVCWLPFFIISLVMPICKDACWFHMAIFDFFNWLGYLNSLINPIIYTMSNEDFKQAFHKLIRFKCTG

[6] = biological target: Substance-P receptor (Homo sapiens, UniProt P25103); type: cell membranes, CHO, Membrane; settings: cho; note: in other assays of this panel Not Active means under 50% inhibition at 10 µM
Chain of Substance-P receptor (P25103 whole entry): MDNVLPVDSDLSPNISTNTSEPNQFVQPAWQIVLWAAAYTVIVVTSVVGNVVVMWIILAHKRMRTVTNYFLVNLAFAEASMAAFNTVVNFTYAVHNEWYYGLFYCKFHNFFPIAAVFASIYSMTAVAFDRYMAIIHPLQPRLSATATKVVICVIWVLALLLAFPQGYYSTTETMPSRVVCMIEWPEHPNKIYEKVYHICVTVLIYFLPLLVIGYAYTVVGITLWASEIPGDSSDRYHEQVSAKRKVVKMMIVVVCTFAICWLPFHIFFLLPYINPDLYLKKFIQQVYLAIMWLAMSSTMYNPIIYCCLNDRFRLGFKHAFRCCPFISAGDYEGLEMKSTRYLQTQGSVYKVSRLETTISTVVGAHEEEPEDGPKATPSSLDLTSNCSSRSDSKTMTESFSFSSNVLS

Row | Compound | IC50 [1] | IC50 [2] | IC50 [3] | Ki [3] | IC50 ([4]; cho-k1) | IC50 [5] | IC50 [6] | IC50 ([4]; read-out: IC50) [nM] | Ki ([4]; read-out: Ki) [nM]
1 | CC(=O)OCC(=O)[C@@]12OC(C)(C)O[C@@H]1C[C@H]1[C@@H]3C[C@H](F)C4=CC(=O)C=C[C@]4(C)[C@@]3(F)[C@@H](O)C[C@@]12C [FLUOCINONIDE] | Not Active | Not Active | Not Active | Not Active | Not Active | Not Active | Not Active | – | –
2 | O=C(O)P(=O)(O)O [FOSCARNET] | Not Active | Not Active | Not Active | Not Active | Not Active | Not Active | Not Active | – | –
3 | Cc1ccc(C)c(OCCCC(C)(C)C(=O)O)c1 [GEMFIBROZIL] | Not Active | Not Active | Not Active | Not Active | Not Active | Not Active | Not Active | – | –
4 | CCC1=C(C)CN(C(=O)NCCc2ccc(S(=O)(=O)NC(=O)N[C@H]3CC[C@H](C)CC3)cc2)C1=O [GLIMEPIRIDE] | Not Active | Not Active | Not Active | Not Active | Not Active | Not Active | Not Active | – | –
5 | Nc1cc(-c2ccncc2)c[nH]c1=O [INAMRINONE] | Not Active | Not Active | Not Active | Not Active | Not Active | Not Active | Not Active | – | –
6 | CCCCC1=NC2(CCCC2)C(=O)N1Cc1ccc(-c2ccccc2-c2nnn[nH]2)cc1 [IRBESARTAN] | Not Active | Not Active | Not Active | Not Active | Not Active | Not Active | Not Active | – | –
7 | CN1CCC(=C2c3ccccc3CC(=O)c3sccc32)CC1 [KETOTIFEN] | Not Active | Not Active | Not Active | Not Active | – | Not Active | Not Active | 2540 | 1450
8 | N[C@@H](Cn1ccc(=O)c(O)c1)C(=O)O [L-MIMOSINE] | Not Active | Not Active | Not Active | Not Active | Not Active | Not Active | Not Active | – | –
9 | C[N+](C)(C)C[C@H](O)CC(=O)[O-] [LEVOCARNITINE] | Not Active | Not Active | Not Active | Not Active | Not Active | Not Active | Not Active | – | –
10 | C[C@H]1COc2c(N3CCN(C)CC3)c(F)cc3c(=O)c(C(=O)O)cn1c23.C[C@H]1COc2c(N3CCN(C)CC3)c(F)cc3c(=O)c(C(=O)O)cn1c23.O [LEVOFLOXACIN] | Not Active | Not Active | Not Active | Not Active | Not Active | Not Active | Not Active | – | –
11 | CCn1cc(C(=O)O)c(=O)c2cc(F)c(N3CCNC(C)C3)c(F)c21 (stereo not given) [LOMEFLOXACIN] | Not Active | Not Active | Not Active | Not Active | Not Active | Not Active | Not Active | – | –
12 | CN1CCCC(CN2c3ccccc3Sc3ccccc32)C1 (stereo not given) [MEPAZINE] | Not Active | Not Active | Not Active | Not Active | Not Active | Not Active | Not Active | – | –
13 | Cc1cccc(C)c1NC(=O)C1CCCCN1C (stereo not given) [MEPIVACAINE] | Not Active | Not Active | Not Active | Not Active | Not Active | Not Active | Not Active | – | –
14 | CN(C)C(=N)NC(=N)N [METFORMIN] | Not Active | Not Active | Not Active | Not Active | Not Active | Not Active | Not Active | – | –
15 | CC(C)(C)NCC(O)COc1cccc2c1CC(O)C(O)C2 (stereo not given) [NADOLOL] | Not Active | Not Active | Not Active | Not Active | Not Active | Not Active | Not Active | – | –
16 | C[C@]12CC[C@H]3[C@@H](CCC4=CC(=O)CC[C@@H]43)[C@@H]1CC[C@@H]2O [NANDROLONE] | Not Active | Not Active | Not Active | Not Active | Not Active | Not Active | Not Active | – | –
17 | C[C@@H]1C/C=C/C=C/C=C/C=C/[C@H](O[C@@H]2O[C@H](C)[C@@H](O)[C@H](N)[C@@H]2O)C[C@@H]2O[C@](O)(C[C@@H](O)C[C@H]3O[C@@H]3/C=C/C(=O)O1)C[C@H](O)[C@H]2C(=O)O [NATAMYCIN] | Not Active | Not Active | Not Active | Not Active | Not Active | Not Active | Not Active | – | –
18 | CN(C)C(=O)Oc1cccc([N+](C)(C)C)c1.[Br-] [NEOSTIGMINE BROMIDE] | Not Active | Not Active | Not Active | Not Active | Not Active | Not Active | Not Active | – | –
19 | NC(=O)c1cccnc1 [NIACINAMIDE] | Not Active | Not Active | Not Active | Not Active | Not Active | Not Active | Not Active | – | –
20 | CS(=O)(=O)Nc1ccc([N+](=O)[O-])cc1Oc1ccccc1 [NIMESULIDE] | Not Active | Not Active | Not Active | Not Active | Not Active | Not Active | Not Active | – | –
21 | CN1C(=O)CN=C(c2ccccc2)c2cc([N+](=O)[O-])ccc21 [NIMETAZEPAM] | Not Active | Not Active | Not Active | Not Active | Not Active | Not Active | Not Active | – | –
22 | COc1ccc2c(c1OC)C(=O)O[C@@H]2[C@H]1c2c(cc3c(c2OC)OCO3)CCN1C [NOSCAPINE] | Not Active | Not Active | Not Active | Not Active | Not Active | Not Active | Not Active | – | –
